Measurements as given in US11542255B2, “Sulfonylureas and sulfonylthioureas as NLRP3 inhibitors” (Inflazome Limited, priority 2017, dated 2023).
Structures can show the parent of a compound that is named as a salt.

Tests used:
[1] = target: T1, NLRP3 (Homo sapiens, UniProt Q96P20); assay: THP-1 cells pyroptosis assay (LPS + nigericin, resazurin readout); type: cell-based; set-up: Seed THP-1 cells (25,000 cells/well) containing 1.0 μg/ml LPS in 40 μl of RPMI medium; host or cells: THP-1 cells; settings: NLRP3 inhibitory activity, 1.0 μg/ml LPS, 5 μM nigericin
Outline: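 LPS-primed (1 μg/ml) THP-1 cells, 25,000/well in serum-free RPMI, given compound (8-point half-log, 10 μM top; 0.1% DMSO) for 3 h at 37 °C, then nigericin 5 μM for 1 h. Viability by resazurin (100 μM, 1-2 h), Ex 560/Em 590 nm; IC50 from 4-parameter variable-slope fit.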

[2] = target: T1, NLRP3; assay: Human whole blood IL1β release assay (LPS + nigericin, AlphaLisa IL-1β); type: cell-based; set-up: Human whole blood in Li-heparin tubes was obtained from healthy donors from a volunteer donor panel; from tissue; host or cells: human whole blood from healthy donors; settings: NLRP3 inhibitory activity, 1 μg/ml LPS, 10 μM nigericin, IL-1β release, read-out: HWB IC50
Procedure: For systemic delivery, the ability to inhibit NLRP3 when the compounds are present within the bloodstream is of great importance. For this reason, the NLRP3 inhibitory activity of a number of compounds in human whole blood was investigated in accordance with the following protocol.
Human whole blood in Li-heparin tubes was obtained from healthy donors from a volunteer donor panel. • 1. Plate out 80 μl of whole blood containing 1 μg/ml of LPS in 96-well, clear bottom cell culture plate (Corning #3585) • 2. Add 10 μl compound (8 points half-log dilution with 10 μM top dose) or vehicle (DMSO 0.1% FAC) to the appropriate wells • 3. Incubate for 3 hrs at 37° C., 5% CO2 • 4. Add 10 μl Nigericin (Sigma #N7143) (10 μM FAC) to all wells • 5. Incubate for 1 hr at 37° C., 5% CO2 • 6. At the end of the incubation period, spin plates at 300×g for 5 mins to pellet cells and remove 20 μl of supernatant and add to 96-well v-bottom plates for IL-1β analysis (note: these plates containing the supernatants can be stored at −80° C. to be analysed at a later date) • 7. IL-1β was measured according to the manufacturer protocol (Perkin Elmer-AlphaLisa IL-1β Kit AL220F-5000) • 8. IC50 data is fitted to a non-linear regression equation (log inhibitor vs response-variable slope 4-parameters)

T1 sequence (Q96P20 whole entry): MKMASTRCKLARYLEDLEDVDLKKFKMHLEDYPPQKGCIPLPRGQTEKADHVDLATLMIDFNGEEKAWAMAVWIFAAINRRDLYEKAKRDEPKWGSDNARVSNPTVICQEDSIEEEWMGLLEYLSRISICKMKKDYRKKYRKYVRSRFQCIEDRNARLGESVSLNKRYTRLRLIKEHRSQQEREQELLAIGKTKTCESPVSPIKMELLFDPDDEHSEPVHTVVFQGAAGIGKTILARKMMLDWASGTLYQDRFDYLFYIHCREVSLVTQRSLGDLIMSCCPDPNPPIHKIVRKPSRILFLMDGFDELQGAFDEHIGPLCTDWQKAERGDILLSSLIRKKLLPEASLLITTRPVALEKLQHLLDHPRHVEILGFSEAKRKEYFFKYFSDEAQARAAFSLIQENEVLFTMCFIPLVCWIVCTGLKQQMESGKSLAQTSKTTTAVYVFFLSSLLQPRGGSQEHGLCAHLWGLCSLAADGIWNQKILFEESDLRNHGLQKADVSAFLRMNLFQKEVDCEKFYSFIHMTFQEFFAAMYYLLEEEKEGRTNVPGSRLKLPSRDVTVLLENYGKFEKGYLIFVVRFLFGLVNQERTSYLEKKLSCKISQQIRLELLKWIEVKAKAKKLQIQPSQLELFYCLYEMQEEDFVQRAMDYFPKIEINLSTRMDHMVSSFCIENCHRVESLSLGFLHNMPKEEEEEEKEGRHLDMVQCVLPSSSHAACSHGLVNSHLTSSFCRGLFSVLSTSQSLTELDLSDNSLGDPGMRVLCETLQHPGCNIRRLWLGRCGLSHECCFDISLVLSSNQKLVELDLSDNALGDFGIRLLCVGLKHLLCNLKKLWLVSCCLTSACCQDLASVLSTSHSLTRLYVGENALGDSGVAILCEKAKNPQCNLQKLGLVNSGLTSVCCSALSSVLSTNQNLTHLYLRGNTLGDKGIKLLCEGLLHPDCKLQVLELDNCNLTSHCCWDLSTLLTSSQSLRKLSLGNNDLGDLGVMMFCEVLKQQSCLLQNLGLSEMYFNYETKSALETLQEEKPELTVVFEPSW

Row | SMILES | IC50 [1] [µM] | IC50 [2] [µM]
1 | CCN(CC)Cc1cc(S(=O)(=O)NC(=O)Nc2c(C(C)C)cc(F)cc2C(C)C)nn1C [Example 83, 5-((Diethylamino)methyl)-N-((4-fluoro-2,6-diisopropylphenyl)carbamoyl)-1-methyl-1H-pyrazole-3-sulfonamide, sodium Salt] | 0.64 to 2.56 | 0.4 to 0.8
2 | CNCc1cc(S(=O)(=O)NC(=O)Nc2c(-c3ccnc(OC)c3)ccc3c2CCC3)nn1C1CC1 [Example 178] | 0.04 to 0.16 | < 0.4
3 | CC(C)c1cc(F)cc(C(C)C)c1NC(=O)NS(=O)(=O)c1cc(CN(C)CCO)n(C)n1 [Example 116, N-((4-Fluoro-2,6-diisopropylphenyl)carbamoyl)-5-(((2-hydroxyethyl)(methyl)amino)methyl)-1-methyl-1H-pyrazole-3-sulfonamide] | 0.16 to 0.64 | < 0.4
4 | CC(C)n1nc(S(=O)(=O)NC(=O)Nc2c3c(cc4c2CCC4)CCC3)cc1CCN(C)C [Example 33, 5-(2-(Dimethylamino)ethyl)-N-((1,2,3,5,6,7-hexahydro-s-indacen-4-yl)carbamoyl)-1-isopropyl-1H-pyrazole-3-sulfonamide, Sodium Salt] | 0.16 to 0.64 | 0.4 to 0.8
5 | CC(C)c1cc(Cl)cc(C(C)C)c1NC(=O)NS(=O)(=O)c1cc(CN(C)C)n(C(C)C)n1 [Example 55, N-((4-Chloro-2,6-diisopropylphenyl)carbamoyl)-5-((dimethylamino)methyl)-1-isopropyl-1H-pyrazole-3-sulfonamide] | 0.04 to 0.16 | 1.6 to 3.2
6 | CC(C)c1cc(F)cc(C(C)C)c1NC(=O)NS(=O)(=O)c1cc(CN2CC(F)C2)n(C)n1 [Example 79, N-((4-Fluoro-2,6-diisopropylphenyl)carbamoyl)-5-((3-fluoroazetidin-1-yl)methyl)-1-methyl-1H-pyrazole-3-sulfonamide] | 0.64 to 2.56 | 0.8 to 1.6
7 | CN1CC(O)(c2cc(S(=O)(=O)NC(=O)Nc3c4c(cc5c3CCC5)CCC4)nn2C)C1 [Example 75, N-((1,2,3,5,6,7-Hexahydro-s-indacen-4-yl)carbamoyl)-5-(3-hydroxy-1-methylazetidin-3-yl)-1-methyl-1H-pyrazole-3-sulfonamide] | 0.16 to 0.64 | 0.8 to 1.6
8 | CC(C)c1cc(F)cc(-c2ccnc(C#N)c2)c1NC(=O)NS(=O)(=O)c1cc(CN(C)C)n(C)n1 [Example 36, N-((2-(2-Cyanopyridin-4-yl)-4-fluoro-6-isopropylphenyl)carbamoyl)-5-((dimethylamino)methyl)-1-methyl-1H-pyrazole-3-sulfonamide] | 0.04 to 0.16 | < 0.4
9 | Cn1nc(S(=O)(=O)NC(=O)Nc2c3c(cc4c2CCC4)CCC3)cc1CN1CC(F)C1 [Example 80, 5-((3-Fluoroazetidin-1-yl)methyl)-N-((1,2,3,5,6,7-hexahydro-s-indacen-4-yl)carbamoyl)-1-methyl-1H-pyrazole-3-sulfonamide] | 0.16 to 0.64 | 1.6 to 3.2
10 | CN(C)C(C)(C)c1cc(S(=O)(=O)NC(=O)Nc2c3c(cc4c2CCC4)CCC3)nn1C [Example 34, 5-(2-(Dimethylamino)propan-2-yl)-N-((1,2,3,5,6,7-hexahydro-s-indacen-4-yl)carbamoyl)-1-methyl-1H-pyrazole-3-sulfonamide] | 0.04 to 0.16 | 0.4 to 0.8
11 | CC(c1cc(S(=O)(=O)NC(=O)Nc2c3c(cc4c2CCC4)CCC3)nn1C)N1CCC1 (single isomer, unassigned; enantiomer 1) [Example 26, 5-(1-(Azetidin-1-yl)ethyl)-N-((1,2,3,5,6,7-hexahydro-s-indacen-4-yl)carbamoyl)-1-methyl-1H-pyrazole-3-sulfonamide, Sodium Salt (Enantiomer 1)] | 0.04 to 0.16 | < 0.4

The next lines start with the values.

Row | IC50 [1] [µM] | IC50 [2] [µM] | SMILES
12 | < 0.04 | < 0.4 | COc1cc(-c2ccc3c(c2NC(=O)NS(=O)(=O)c2cc(C(=O)N(C)C)n(C)n2)CCC3)ccn1 [Example 177, 3-(N-((5-(2-Methoxypyridin-4-yl)-2,3-dihydro-1H-inden-4-yl)carbamoyl)sulfamoyl)-N,N,1-trimethyl-1H-pyrazole-5-carboxamide, sodium Salt]
13 | < 0.04 | 0.4 to 0.8 | CCn1nc(S(=O)(=O)NC(=O)Nc2c3c(cc4c2CCO4)CCC3)cc1CN(C)C [Example 184]
14 | 0.04 to 0.16 | < 0.4 | CC(C)c1cc(F)cc(-c2cccnc2)c1NC(=O)NS(=O)(=O)c1cc(C(=O)N(C)C)n(C)n1 [Example 134, 3-(N-((4-Fluoro-2-isopropyl-6-(pyridin-3-yl)phenyl)carbamoyl)sulfamoyl)-N,N,1-trimethyl-1H-pyrazole-5-carboxamide, sodium Salt]
15 | 0.04 to 0.16 | < 0.4 | CCn1nc(S(=O)(=O)NC(=O)Nc2c(-c3ccnc(C#N)c3)cc(F)cc2C(C)C)cc1CN(C)C [Example 35, N-((2-(2-Cyanopyridin-4-yl)-4-fluoro-6-isopropylphenyl)carbamoyl)-5-((dimethylamino)methyl)-1-ethyl-1H-pyrazole-3-sulfonamide]
16 | 0.04 to 0.16 | 0.4 to 0.8 | CC(C)n1nc(S(=O)(=O)NC(=O)Nc2c3c(cc4c2CCC4)CCC3)cc1C1(N(C)C)CC1 [Example 32, 5-(1-(Dimethylamino)cyclopropyl)-N-((1,2,3,5,6,7-hexahydro-s-indacen-4-yl)carbamoyl)-1-isopropyl-1H-pyrazole-3-sulfonamide]
17 | 0.04 to 0.16 | < 0.4 | CC(C)c1cc(F)cc(-c2cccc(C#N)c2)c1NC(=O)NS(=O)(=O)c1cc(CN(C)C)n(C)n1 [Example 46, N-((3′-Cyano-5-fluoro-3-isopropyl-[1,1′-biphenyl]-2-yl)carbamoyl)-5-((dimethylamino)methyl)-1-methyl-1H-pyrazole-3-sulfonamide]
18 | < 0.04 | 0.4 to 0.8 | CC(C)n1nc(S(=O)(=O)NC(=O)Nc2c3c(cc4c2CCC4)CCC3)cc1CN1CCC1 [Example 53, 5-(Azetidin-1-ylmethyl)-N-((1,2,3,5,6,7-hexahydro-s-indacen-4-yl)carbamoyl)-1-isopropyl-1H-pyrazole-3-sulfonamide]
19 | < 0.04 | 0.4 to 0.8 | CC(C)n1nc(S(=O)(=O)NC(=O)Nc2c3c(cc4c2CCC4)CCC3)cc1C1CCCN1C (centres unmarked) [Example 186]
20 | < 0.04 | 0.8 to 1.6 | CN(C)C(c1cc(S(=O)(=O)NC(=O)Nc2c3c(cc4c2CCC4)CCC3)nn1C)C(F)(F)F (centres unmarked) [Example 95, 5-(˜(Dimethylamino)-2,2,2-trifluoroethyl)-N-((1,2,3,5,6,7-hexahydro-s-indacen-4-yl)carbamoyl)-1-methyl-1H-pyrazole-3-sulfonamide]
21 | < 0.04 | < 0.4 | CCC(c1cc(S(=O)(=O)NC(=O)Nc2c3c(cc4c2CCC4)CCC3)nn1C1CC1)N1CCC1 (centres unmarked) [Example 23, 5-(1-(Azetidin-1-yl)propyl)-1-cyclopropyl-N-((1,2,3,5,6,7-hexahydro-s-indacen-4-yl)carbamoyl)-1H-pyrazole-3-sulfonamide]
22 | < 0.04 | < 0.4 | CCn1nc(S(=O)(=O)NC(=O)Nc2c(-c3ccnc(OC)c3)ccc3c2CCC3)cc1CN(C)C [Example 17, 5-((Dimethylamino)methyl)-1-ethyl-N-((5-(2-methoxypyridin-4-yl)-2,3-dihydro-1H-inden-4-yl)carbamoyl)-1H-pyrazole-3-sulfonamide]
